In paper PMC12566046, “Arylpiperazinyl-Benzocycloheptapyrrole-Carboxamides Endowed with Dual Anticancer and Antiviral Activities” (Molecules, 2025):

Tests used:
[1] = system: SARS-CoV-2 VR PV10734 (strain Milano); test: microbe, parasite or virus in culture; type: cell-based; settings: Severe acute respiratory syndrome coronavirus 2; preliminary screening (50, 5, 0.5 μM), Vero TMPRSS; read-out: SARS‐CoV‐2/Vero TMPRSS EC50
in vitro [2] = settings: dog
[3] = system: NCI-H226 (non-small cell lung cancer cell line); test: NCI-60 single-dose assay; type: cell-based, human; settings: Homo sapiens, NCI-H226, read-out: growth inhibition (GI%) and cytotoxicity (negative values)
Method in brief: (§1)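 Cytotoxicity was screened at a single dose across the NCI-60 human tumour cell panel, which covers leukemia, melanoma and lung, colon, CNS, ovarian, renal, prostate and breast cancers.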

[4] = system: SK-MEL-2 (melanoma cell line); test: NCI-60 single-dose assay; type: cell-based, human; settings: Homo sapiens, SK-MEL-2, read-out: growth inhibition (GI%) and cytotoxicity (negative values)
Method in brief: as §1

[5] = system: SK-MEL-28 (melanoma cell line); test: NCI-60 single-dose assay; type: cell-based, human; settings: for inhibition at 10 µM: Homo sapiens, SK-MEL-28, read-out: growth inhibition (GI%) and cytotoxicity (negative values)
Method in brief: as §1

[6] = system: HT29 (colon cancer cell line); test: NCI-60 single-dose assay; type: cell-based, human; settings: for growth inhibition (GI%) and cytotoxicity (negative values): human
Method in brief: as §1

[7] = system: CCRF-CEM (leukemia cell line); test: NCI-60 single-dose assay; type: cell-based, human; settings: Homo sapiens, read-out: growth inhibition (GI%) and cytotoxicity (negative values)
Method in brief: as §1

[8] = system: 786-0 (renal cancer cell line); test: NCI-60 single-dose assay; type: cell-based, human; settings: Homo sapiens, 786-0, read-out: growth inhibition (GI%) and cytotoxicity (negative values)
Method in brief: as §1

[9] = system: SK-MEL-5 (melanoma cell line); test: NCI-60 single-dose assay; type: cell-based, human; settings: human
Method in brief: as §1

[10] = system: NCI-H23 (non-small cell lung cancer cell line); test: NCI-60 single-dose assay; type: cell-based, human; settings: Homo sapiens, NCI-H23, read-out: growth inhibition (GI%) and cytotoxicity (negative values)
Method in brief: as §1

[11] = system: HCT-15 (colon cancer cell line); test: NCI-60 single-dose assay; type: cell-based, human; settings: Homo sapiens, HCT-15, read-out: growth inhibition (GI%) and cytotoxicity (negative values)
Method in brief: as §1

[12] = system: NCI-H522 (non-small cell lung cancer cell line); test: NCI-60 single-dose assay; type: cell-based, human; settings: Homo sapiens, NCI-H522, read-out: growth inhibition (GI%) and cytotoxicity (negative values)
Method in brief: as §1

[13] = system: MDA-MB-435 (melanoma cell line); test: NCI-60 single-dose assay; type: cell-based, human; settings: Homo sapiens, MDA-MB-435, read-out: growth inhibition (GI%) and cytotoxicity (negative values)
Method in brief: as §1

[14] = system: UO-31 (renal cancer cell line); test: NCI-60 single-dose assay; type: cell-based, human; settings: Homo sapiens, UO-31, read-out: growth inhibition (GI%) and cytotoxicity (negative values)
Method in brief: as §1

[15] = system: HCT-116 (colon cancer cell line); test: NCI-60 single-dose assay; type: cell-based, human; settings: Homo sapiens, HCT-116, read-out: growth inhibition (GI%) and cytotoxicity (negative values)
Method in brief: as §1

[16] = system: EKVX (non-small cell lung cancer cell line); test: NCI-60 single-dose assay; type: cell-based, human; settings: Homo sapiens, read-out: growth inhibition (GI%) and cytotoxicity (negative values)
Method in brief: as §1

M14 (melanoma cell line) = test: NCI-60 single-dose assay; type: cell-based, human; settings: human
Method in brief: as §1

[17] = system: RPMI-8226 (leukemia cell line); test: NCI-60 single-dose assay; type: cell-based, human; settings: Homo sapiens, RPMI-8226, read-out: growth inhibition (GI%) and cytotoxicity (negative values)
Method in brief: as §1

[18] = system: COLO 205 (colon cancer cell line); test: NCI-60 single-dose assay; type: cell-based, human; settings: human
Method in brief: as §1

[19] = system: NCI-H460 (non-small cell lung cancer cell line); test: NCI-60 single-dose assay; type: cell-based, human; settings: Homo sapiens, NCI-H460, read-out: growth inhibition (GI%) and cytotoxicity (negative values)
Method in brief: as §1

[20] = system: MALME-3M (melanoma cell line); test: NCI-60 single-dose assay; type: cell-based, human; settings: for inhibition at 10 µM: Homo sapiens, Malme-3M, read-out: growth inhibition (GI%) and cytotoxicity (negative values)
Method in brief: as §1

[21] = system: SW-620 (colon cancer cell line); test: NCI-60 single-dose assay; type: cell-based, human; settings: Homo sapiens, SW-620, read-out: growth inhibition (GI%) and cytotoxicity (negative values)
Method in brief: as §1

[22] = system: HL-60(TB) (leukemia cell line); test: NCI-60 single-dose assay; type: cell-based, human; settings: human
[23] = system: CAKI-1 (renal cancer cell line); test: NCI-60 single-dose assay; type: cell-based, human; settings: Homo sapiens, CAKI-1, read-out: growth inhibition (GI%) and cytotoxicity (negative values)
Method in brief: as §1

[24] = system: LOX IMVI (melanoma cell line); test: NCI-60 single-dose assay; type: cell-based, human; settings: Homo sapiens, LOX IMVI, read-out: growth inhibition (GI%) and cytotoxicity (negative values)
Method in brief: as §1

[25] = system: RXF 393 (renal cancer cell line); test: NCI-60 single-dose assay; type: cell-based, human; settings: for inhibition at 10 µM: Homo sapiens, RXF 393, read-out: growth inhibition (GI%) and cytotoxicity (negative values)
Method in brief: as §1

[26] = system: SN12C (renal cancer cell line); test: NCI-60 single-dose assay; type: cell-based, human; settings: Homo sapiens, read-out: growth inhibition (GI%) and cytotoxicity (negative values)
Method in brief: as §1

[27] = system: K-562 (leukemia cell line); test: NCI-60 single-dose assay; type: cell-based; settings: Homo sapiens, K562, read-out: growth inhibition (GI%) and cytotoxicity (negative values)
Method in brief: as §1

in vitro [28] = settings: African green monkey
[29] = Cytotoxicity on uninfected Huh-7 cells (WST-8, crystal violet); settings: human, uninfected Huh-7 cells
[30] = system: MCF-7 (breast cancer cell line); test: NCI-60 single-dose assay; type: cell-based, human; settings: Homo sapiens, MCF7, read-out: growth inhibition (GI%) and cytotoxicity (negative values), MCF-7, 10^−5 M
Method in brief: as §1

[31] = system: BT-549 (breast cancer cell line); test: NCI-60 single-dose assay; type: cell-based, human; settings: Homo sapiens, BT-549, read-out: growth inhibition (GI%) and cytotoxicity (negative values)
Method in brief: as §1

[32] = system: MDA-MB-468 (breast cancer cell line); test: NCI-60 single-dose assay; type: cell-based, human; settings: human
Method in brief: as §1

[33] = system: T-47D (breast cancer cell line); test: NCI-60 single-dose assay; type: cell-based, human; settings: Homo sapiens, T47D, read-out: growth inhibition (GI%) and cytotoxicity (negative values)
Method in brief: as §1

[34] = system: MDA-MB-231/ATCC (breast cancer cell line); test: NCI-60 single-dose assay; type: cell-based, human; settings: Homo sapiens, MDA-MB-231, read-out: growth inhibition (GI%) and cytotoxicity (negative values)
Method in brief: as §1

[35] = system: IAV strain A/PR/8/34 (H1N1); settings: preliminary screening

| Compound | CC50 (in vitro [2]) [µM] | inhibition at 10 µM [3] [%] | inhibition at 10 µM [4] [%] | inhibition at 10 µM [7] [%] | inhibition at 10 µM [8] [%] | growth inhibition (GI%) and cytotoxicity (negative values) [9] [%] | inhibition at 10 µM [10] [%] | inhibition at 10 µM [11] [%] | inhibition at 10 µM [12] [%] | inhibition at 10 µM [13] [%] | inhibition at 10 µM [14] [%] | inhibition at 10 µM [15] [%] | inhibition at 10 µM [16] [%] | growth inhibition (GI%) and cytotoxicity (negative values) (M14 (melanoma cell line)) [%] | inhibition at 10 µM [17] [%] | growth inhibition (GI%) and cytotoxicity (negative values) [18] [%] | inhibition at 10 µM [19] [%] | inhibition at 10 µM [21] [%] | growth inhibition (GI%) and cytotoxicity (negative values) [22] [%] | inhibition at 10 µM [23] [%] | also measured |
| --- | --- | --- | --- | --- | --- | --- | --- | --- | --- | --- | --- | --- | --- | --- | --- | --- | --- | --- | --- | --- | --- |
| COc1ccccc1N1CCN(CCNC(=O)c2[nH]c3c(c2Cl)CCCc2ccccc2-3)CC1 [Compound 5] | 11 | < 60 | < 60 | 71.6 | 63 | −62.59 | 62.2 | 92.5 | 85.5 | 61.8 | 70 | 94.6 | 94.2 | −22.16 | < 60 | −48.74 | 79.2 | 67.4 | −8.91 | 77.9 | EC50 [1]: 34.9 µM; inhibition at 10 µM [5]: < 60%; growth inhibition (GI%) and cytotoxicity (negative values) [6]: −17.44%; inhibition at 10 µM [20]: < 60%; inhibition at 10 µM [24]: 82.8%; inhibition at 10 µM [25]: 89.4%; inhibition at 10 µM [26]: 71.8%; inhibition at 10 µM [27]: 95.8%; CC50 at 24 h (in vitro [28]): 29.4 µM; CC50 at 48 h [29]: 24.3 µM |
| O=C(NCCCN1CCN(c2ccccc2)CC1)c1cc2c([nH]1)-c1ccccc1CCC2 [Compound 10, N-(3-(4-Phenylpiperazin-1-yl)propyl)-1,4,5,6-tetrahydrobenzo[6,7]cyclohepta[1,2-b]pyrrole-2-carboxamide] | 67.8 | 75.2 | 75 | 61.2 | 68.7 | −72.58 | < 60 | 91.2 | 71.4 | 75.1 | < 60 | 95.7 | 74.2 | −59.25 | < 60 | −58.03 | 90.7 | 80.1 | −30.92 | 89.4 | growth inhibition (GI%) and cytotoxicity (negative values) ([5]; human): −29.31%; inhibition at 10 µM [30]: 80.2%; growth inhibition (GI%) and cytotoxicity (negative values) [6]: −2.47%; inhibition at 10 µM [31]: < 60%; growth inhibition (GI%) and cytotoxicity (negative values) [32]: −13.75%; inhibition at 10 µM [33]: 65.8%; growth inhibition (GI%) and cytotoxicity (negative values) ([20]; human): −72.64%; inhibition at 10 µM [34]: < 60%; inhibition at 10 µM [24]: 95.2%; growth inhibition (GI%) and cytotoxicity (negative values) ([25]; human): −8.69%; inhibition at 10 µM [26]: < 60%; inhibition at 10 µM [27]: 99.4%; CC50 at 24 h (in vitro [28]): 55.7 µM; CC50 at 48 h [29]: 12.4 µM |
| CCOc1ccccc1N1CCN(CCNC(=O)c2c(Cl)[nH]c3c2CCCc2ccccc2-3)CC1 [Compound 17] | 8.13 | 60.4 | < 60 | 61.6 | < 60 | −88.73 | < 60 | 81 | 65.7 | 69.3 | 69.3 | 88.9 | 87.5 | −7.74 | < 60 | −47.24 | 70 | < 60 | −8.21 | 71.6 | inhibition at 10 µM [5]: 71.5%; inhibition at 10 µM [30]: 82.2%; inhibition at 10 µM ([6]; Homo sapiens, HT-29, read-out: growth inhibition (GI%) and cytotoxicity (negative values)): 81.5%; inhibition at 10 µM [31]: 80.7%; growth inhibition (GI%) and cytotoxicity (negative values) [32]: −3.78%; inhibition at 10 µM [33]: 77.6%; inhibition at 10 µM [20]: 90.3%; inhibition at 10 µM [34]: < 60%; inhibition at 10 µM [24]: 74.3%; inhibition at 10 µM [25]: 62.1%; inhibition at 10 µM [26]: 60.7%; inhibition at 10 µM [27]: 100%; CC50 at 24 h (in vitro [28]): 37.2 µM; CC50 at 48 h [29]: 16.4 µM; IAV/MDCK SI [35]: 0.23 |
